Laboratory results: ChEMBL document CHEMBL1201862, “PubChem BioAssay data set” (2004)
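Each compound was tested at five concentrations against cells in 96-well plates for 48 hours. Abbreviation: GI50, concentration required for 50% inhibition of growth.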 Active and inactive are the calls of the source. Cut-off read from the data, not from the text of the source: active = GI50 up to about 1.1 µM and inactive = higher.

How the values were obtained:
Assay in all cases: NCI-60 cell line screen, 48 h
786-0 = system: 786-0
A498 = system: A498
A549 = system: A549
BT-549 = system: BT-549
DU-145 = system: DU-145
IGROV-1 = system: IGROV-1
K562 = system: K562
KM12 = system: KM12
MDA-MB-435 = system: MDA-MB-435
MDA-N = system: MDA-N
MOLT-4 = system: MOLT-4
NCI-H226 = system: NCI-H226
NCI-H23 = system: NCI-H23
OVCAR-8 = system: OVCAR-8
RPMI-8226 = system: RPMI-8226
SK-MEL-2 = system: SK-MEL-2
SN12C = system: SN12C
SR = system: SR
UO-31 = system: UO-31
SNB-78 = system: SNB-78

Compound | GI50 (786-0) | GI50 (A498) | GI50 (A549) | GI50 (BT-549) | GI50 (DU-145) | GI50 (IGROV-1) | GI50 (K562) | GI50 (KM12) | GI50 (MDA-MB-435) | GI50 (MDA-N) | GI50 (MOLT-4) | GI50 (NCI-H226) | GI50 (NCI-H23) | GI50 (OVCAR-8) | GI50 (RPMI-8226) | GI50 (SK-MEL-2) | GI50 (SN12C) | GI50 (SR) | GI50 (UO-31) | GI50 (SNB-78)
c1nc(NCCc2c[nH]cn2)c2nc[nH]c2n1 | > 100 µM (inactive) | > 100 µM (inactive) | > 100 µM (inactive) | > 100 µM (inactive) | > 100 µM (inactive) | > 100 µM (inactive) | > 100 µM (inactive) | > 100 µM (inactive) | > 100 µM (inactive) | > 100 µM (inactive) | > 100 µM (inactive) | 91.6 µM (inactive) | > 100 µM (inactive) | > 100 µM (inactive) | > 100 µM (inactive) | > 100 µM (inactive) | > 100 µM (inactive) | > 100 µM (inactive) | > 100 µM (inactive) | 
N#Cc1c(-c2ccc([N+](=O)[O-])cc2)cc(-c2ccc(Nc3ccnc4cc(Cl)ccc34)cc2)nc1N | 0.989 µM (active) | 26.2 µM (inactive) | 3.98 µM (inactive) | 51.1 µM (inactive) | 11 µM (inactive) | 3.22 µM (inactive) | 4.56 µM (inactive) | 2.38 µM (inactive) | 3.35 µM (inactive) | 3.52 µM (inactive) | 1.81 µM (inactive) | > 72.1 µM (inactive) | 25.2 µM (inactive) | 2.19 µM (inactive) | 5.02 µM (inactive) | 14.7 µM (inactive) | 4.81 µM (inactive) | 0.399 µM (active) | 26.5 µM (inactive) | 
CCCCNC(=S)Nc1nc(C(=O)NNC(=O)c2ccccc2)cs1 | 16.7 µM (inactive) | 30.3 µM (inactive) | 20.4 µM (inactive) | 18.1 µM (inactive) | 19.6 µM (inactive) | 13.8 µM (inactive) | 44.5 µM (inactive) | 15.2 µM (inactive) | 19.7 µM (inactive) | 17.5 µM (inactive) | 20.5 µM (inactive) | 21.3 µM (inactive) | > 10 µM (inactive) | 17.4 µM (inactive) | 26.1 µM (inactive) | 19.6 µM (inactive) | 17.3 µM (inactive) | 29.6 µM (inactive) | 14.1 µM (inactive) | 
C=CC(C)(C)n1cc(C2=C3OC(=O)C(c4cn(C(C)(C)C=C)c5ccccc45)=C3OC2=O)c2ccccc21 | > 100 µM (inactive) | > 100 µM (inactive) | > 100 µM (inactive) | > 100 µM (inactive) | > 100 µM (inactive) | > 100 µM (inactive) | > 100 µM (inactive) | > 100 µM (inactive) | > 100 µM (inactive) | > 100 µM (inactive) | > 100 µM (inactive) | > 100 µM (inactive) | > 100 µM (inactive) | > 100 µM (inactive) | > 100 µM (inactive) | > 100 µM (inactive) | > 100 µM (inactive) | > 100 µM (inactive) | > 100 µM (inactive) | 
CCC(C)(C)NS(=O)(=O)c1ccccc1 | > 100 µM (inactive) | > 100 µM (inactive) | > 100 µM (inactive) |  |  | > 100 µM (inactive) | > 100 µM (inactive) | > 100 µM (inactive) |  |  | > 100 µM (inactive) | > 10 µM (inactive) | > 100 µM (inactive) | > 100 µM (inactive) | > 100 µM (inactive) | > 100 µM (inactive) |  |  | > 100 µM (inactive) | > 100 µM (inactive)
O=C1N[C@H]2c3c(Cl)sc(Cl)c3C(=O)[C@H]2O1 | 20.2 µM (inactive) | 20.2 µM (inactive) | 36.8 µM (inactive) | 22.3 µM (inactive) | 23.4 µM (inactive) | 3.55 µM (inactive) | 2.99 µM (inactive) | 39.1 µM (inactive) | 14.3 µM (inactive) | 24 µM (inactive) | 2.01 µM (inactive) | 17.9 µM (inactive) | 10.5 µM (inactive) | 4.31 µM (inactive) | 19.7 µM (inactive) | 24 µM (inactive) | 8.71 µM (inactive) | 2.09 µM (inactive) | 19.1 µM (inactive) | 
NC(CCC(=O)NC(CSCC1C(=O)Nc2ccccc21)C(=O)NCC(=O)O)C(=O)O (stereo not drawn) | 3.87 µM (inactive) | 13.8 µM (inactive) | 7.43 µM (inactive) | 6.79 µM (inactive) | 6.17 µM (inactive) | 5.52 µM (inactive) | 1.6 µM (inactive) | 9.82 µM (inactive) | 6.31 µM (inactive) | 6.37 µM (inactive) | 5.35 µM (inactive) | 7.23 µM (inactive) | 5.41 µM (inactive) | 6.15 µM (inactive) | 2.02 µM (inactive) | 9.53 µM (inactive) | 5.86 µM (inactive) | 0.386 µM (active) | 0.466 µM (active) | 
